According to publication PMC9027131, “Dual PI3K/Akt Inhibitors Bearing Coumarin-Thiazolidine Pharmacophores as Potential Apoptosis Inducers in MCF-7 Cells” (Pharmaceuticals, 2022):

Experiments:
MCF-7 cells = assay: MTT cytotoxicity assay in MCF-7 cells; assay type: cell-based, human; details: Homo sapiens, MCF7, 48 h, means ± sd, n = 3
Procedure: The in vitro anticancer activity of the designed coumarin-thiosemicarbazones and coumarin-thiazolidine-4-one hybrids against MCF-7 cells was tested using the MTT assay, and 5-fluorouracil (5-FU) was used as the reference drug. The tested compounds were used in different concentrations, and cell survival was determined after incubation for 48 h as reported. The cytotoxic activity is represented in Table 1 as IC50 (µM) values.
(§1) MCF-7 breast cancer cell line (ATCC® HTB-22™) plus non-tumorigenic epithelial cell line (MCF 10, ATCC® CRL-10317™) were supplied from VACSERA (Cairo, Egypt) and cultured in Dulbecco’s Modified Eagle Medium (Invitrogen-Life Technologies, Carlsbad, CA, USA) with 1% antibiotic solution (streptomycin–penicillin) plus 10% fetal bovine serum (Hyclone) in a 5% (v/v) humidified CO2 incubator at 37 °C.
Firstly, cells were kept in a humidified atmosphere (37 °C, 24 h), and then incubated with serial concentrations of the tested compounds. After 48 h, the medium was aspirated, and then cells were incubated with 5% MTT solution (M-5655; Sigma Aldrich, St. Louis, MO USA) (200 µL/well, 2 h), allowing the dye to metabolize into the colored insoluble formazan complex that was then dissolved in the appropriate solubilization solution (M-8910) (200 µL/well), for 30 min with gentle mixing at room temperature. The UV absorbance was measured using a microplate reader (570 nm), and cell viability was determined with respect to untreated control cells. […] The values were means ± sd; n = 3.

[1] = test system: MCF 10 non-tumorigenic epithelial cell line; assay: MTT assay in non-cancerous epithelial cells (MCF 10); assay type: cell-based
Procedure: as §1
Firstly, cells were kept in a humidified atmosphere (37 °C, 24 h), and then incubated with serial concentrations of the tested compounds. After 48 h, the medium was aspirated, and then cells were incubated with 5% MTT solution (M-5655; Sigma Aldrich, St. Louis, MO USA) (200 µL/well, 2 h), allowing the dye to metabolize into the colored insoluble formazan complex that was then dissolved in the appropriate solubilization solution (M-8910) (200 µL/well), for 30 min with gentle mixing at room temperature. The UV absorbance was measured using a microplate reader (570 nm), and cell viability was determined with respect to untreated control cells.

caspase-9 = assay: Cleaved caspase-9 level by ELISA in MCF-7 cells; assay type: cell-based, human; details: MCF-7, 48 h; control 2.712 ± 0.09; means ± sd, n = 3
Procedure: Apoptosis is a programmed cell death modality that includes an array of steps such as activation of caspases alongside endonucleases leading to DNA cleavage, eventually causing the formation of apoptotic bodies. Caspases are classified into effector caspases, such as caspase-3, -6, and -7, and initiator caspases, including either caspase-2, -8, and -10 (extrinsic pathway) or caspase-9 (intrinsic pathway).
The level of cleaved caspase-9 was assessed in both untreated/control MCF-7 cells and following VIIb treatment using DRG® Caspase-9 (human) ELISA (EIA-4860), following the manufacturer’s instructions (DRG International Inc., Springfield, NJ, USA). The data were means ± sd; n = 3.

Q: Which IC50 (MCF-7 cells) does the source give for `C/C(=N/N=C1/SCC(=O)N1C(=O)c1ccccc1)c1c(O)ccc2c(C)cc(=O)oc12` [VIIb] here?
A: 1.03 ± 0.05 µM

Q: What about the IC50 ([1]; Homo sapiens, MCF10, MTT assay, non-cancerous epithelial cells, means ± sd, n = 3) of the same molecule?
A: 9.52 ± 0.6 µM

Q: What about the “Selectivity Index MCF-10/MCF-7” value ([1]; ratio of IC50 MCF-10 to IC50 MCF-7) of the same molecule?
A: 9.24

Q: And the “Caspase-9 Level” value (caspase-9)?
A: 21.61 ± 0.14 ng/mL
